Reference: patent US11458189B2, “Cytoprotective drugs” (BALMES TRANSPLANTATION, priority 2017, dated 2022)
Starred links: 1 amine or outer side, 2 acyl side, 3 side chain; linkers in the order of their positions; H or OH if unused. Positions of bridges follow the written chain, without caps; N, C: chain ends. Non-standard residues stand in square brackets, D forms with d. Residues, ends and D or L forms follow the SMILES beside them. *: point of attachment. hTyr(3S-OH,4S-OH,3'-OSO3H) = N[C@H](C(=O)O)[C@H](O)[C@@H](O)c1ccc(O)c(OS(=O)(=O)O)c1; Orn(4R-OH,5R-OH) = O=C([C@H](C[C@@H](O)[C@@H](O)N[*:3])N[*:1])[*:2]; Pro(3S-OH,4S-Me) = C[C@H]1CN[C@H](C(=O)O)[C@H]1O; X1 = CCCCCOc1ccc(-c2cc(-c3ccc(C(=O)*)cc3)no2)cc1; Gln(3R-OH) = NC(=O)C[C@@H](O)[C@H](N)C(=O)O; Hyp = O=C(O)[C@@H]1C[C@@H](O)CN1

Tested on: Human Cardiac Microvascular Endothelial Cells (HCMEC)
Assay: Oxygen and glucose deprivation followed by replenishment, cell survival (calcein AM), HCMEC
Type: cell-based
Method: Anidulafungin and micafungin were tested on Human Renal Glomerular Endothelial Cells (HRGEC, Innoprot P10665), on Human Renal Proximal Tubular Epithelial Cells (HRPTEpiC, Innoprot P10662), on Human Astrocytes (HA, caltag SC-1800), on Human Cardiac Microvascular Endothelial Cells (HCMEC, Caltag SC-6000), on Human Hepatic Sinusoidal Endothelial Cells (HHSEC, Caltag SC-5000), on Rat Primary Kidney Glomerular Endothelial cells (Cellbiologics, RN-6014G) and on Bovine Brain Microvascular Endothelial Cells (BBMEC, Caltag SC-B100).
In a first phase, these isolated, purified and cryopreserved cells are thawed and multiplied according to the supplier's recommendations in T75 or T175 flasks pre-coated with 2 μg of fibronectin/[…] (CORNING) for HRGEC, HCMEC, HHSEC and BBMEC, or 2 μg poly-L-lysin/cm^2 (Caltag SC-0403) for HRPTEpiC and HA, or 15 mL/flask 175 cm^2 gelatin-based solution (Cellbiologics) in the presence of endothelial cell supplemented growth medium ECM (P60104, INNOPROT, Caltag, SC-1001) for HRGEC, HCMEC, HHSEC, RPKGEC or BBMEC, or astrocyte cell supplemented growth medium AM (Caltag SC-1801) for HA or epithelial cell supplemented growth medium EpiCM (P60106, INNOPROT) for HRPTEpiC, at 37° C. under 5% CO2 and saturated humidity until their confluency. They are then harvested by trypsinization according to the method described by the supplier for exactly 5 minutes and then reseeded in new flasks a maximum of three times.
To carry out the oxygen and glucose deprivation test followed by their replenishment, the cells will be seeded in 96-well black plates with transparent flat bottom (GREINER). Once a sufficient number of cells has been obtained to allow seeding of 2000 to 15000 cells per well of 96-well plates depending on the cell type, the cells are seeded in these 96-well plates previously coated with an extracellular matrix as listed above for the flasks. The cells are cultured for 5 to 8 days according to the cell type, in the presence of the same growth medium as in the flask as described above except for HRGEC and HRPTEpiC for which DMEM (DUTSCHER) with 1 g/L of supplemented glucose is used, at 37° C. under 5% CO2 and saturated humidity to obtain confluency.
On the first day of oxygen and glucose deprivation, (5th, 6th, 7th or 8th day of culture), the culture conditions are drastically changed. The medium of all plates is removed and replaced by DMEM (DUTSCHER) medium without glucose and supplemented only with 1% penicillin-streptomycin (DUTSCHER). Anidulafungin or micafungin dissolved in dimethyl sulfoxide (DMSO) is then added to each well at the desired concentration, resulting in a maximum of 1% DMSO, and the plates are placed under hypoxia at <1% 02 and 5% CO2 at 37° C. for 24 hours of culture. Each compound was tested in a concentration range.
After 24 hours, the growth medium is changed and replaced by a richer medium, DMEM (DUTSCHER) at 1 g/L glucose and 2% FBS (INNOPROT) and 1% penicillin-streptomycin (DUTSCHER). These media will have been pre-equilibrated at 37° C. in advance. The cells are then returned to culture at 37° C. under 20% 02 and 5% CO2 for 22h.
After 22 hours of reoxygenation, the potential protective effect of anidulafungin or micafungin is measured by a cell viability test using calcein AM (CORNING), which is a dye substrate. The calcein AM can easily cross the cell membrane of the viable cells. The AM ester groups mask the part of the molecule that chelates calcium. Once inside the cells, the (non-fluorescent) calcein AM is hydrolyzed to (fluorescent) calcein by endogenous esterases. The resulting calcein molecule binds to calcium inside the cell and remains trapped inside the cell. These molecules emit strong green fluorescence when subjected to […] of a particular wavelength (495 nm). Since dead cells lack esterase activity, only living cells are labelled.
This cell viability test is performed in two steps. […]

`CCCCCOc1ccc(-c2cc(-c3ccc(C(=O)N[C@H]4C[C@@H](O)[C@@H](O)NC(=O)[C@@H]5[C@@H](O)[C@@H](C)CN5C(=O)[C@H]([C@H](O)CC(N)=O)NC(=O)[C@H]([C@H](O)[C@@H](O)c5ccc(O)c(OS(=O)(=O)O)c5)NC(=O)[C@@H]5C[C@@H](O)CN5C(=O)[C@H]([C@@H](C)O)NC4=O)cc3)no2)cc1` [Micafungin, {5-[(1S,2S)-2-[(3S,6S,9S,11R,15S,18S,20R,21R,24S,25S,26S)-3-[(1R)-2-carbamoyl-1-hydroxyethyl]-11,20,21,25-tetrahydroxy-15-[(1R)-1-hydroxyethyl]-26-methyl-2,5,8,14,17,23-hexaoxo-18-[(4-{5-[4-(pentyloxy)phenyl]-1,2-oxazol-3-yl}benzene)amido]-1,4,7,13,16,22-hexaazatricyclo[22.3.0.0]heptacosan-6-yl]-1,2-dihydroxyethyl]-2-hydroxyphenyl}oxidanesulfonic acid] (X1-[Orn(4R-OH,5R-OH)]T[Hyp][hTyr(3S-OH,4S-OH,3'-OSO3H)][Gln(3R-OH)][Pro(3S-OH,4S-Me)]; lactam 1-C) was tested, and the “Globalfluo assay 1” value ([Micafungin] log μM 0) was 4455401 arbitrary units, the “Globalfluo assay 2” value ([Micafungin] log μM 0) was 4660836 arbitrary units and the “Globalfluo assay 3” value ([Micafungin] log μM 0) was 4639734 arbitrary units. For the same molecule, the Mean globalfluo ([Micafungin] log μM 0) was 4585324 arbitrary units, the “Survival rate (%)” value ([Micafungin] log μM 0) was −3% and the “Globalfluo assay 1” value ([Micafungin] log μM 0.4771213) was 5103911 arbitrary units. The “Globalfluo assay 2” value ([Micafungin] log μM 0.4771213) was 5348145 arbitrary units, the “Globalfluo assay 3” value ([Micafungin] log μM 0.4771213) was 4886218 arbitrary units and the Mean globalfluo ([Micafungin] log μM 0.4771213) was 5112758 arbitrary units. For the same molecule, the “Survival rate (%)” value ([Micafungin] log μM 0.4771213) was 0%, the “Globalfluo assay 1” value ([Micafungin] log μM 0.7781513) was 5452718 arbitrary units and the “Globalfluo assay 2” value ([Micafungin] log μM 0.7781513) was 4992821 arbitrary units. For the same molecule, the “Globalfluo assay 3” value ([Micafungin] log μM 0.7781513) was 6254079 arbitrary units, the Mean globalfluo ([Micafungin] log μM 0.7781513) was 5566539 arbitrary units and the “Survival rate (%)” value ([Micafungin] log μM 0.7781513) was 3%. The “Globalfluo assay 1” value ([Micafungin] log μM 0.90309) was 5299685 arbitrary units, the “Globalfluo assay 2” value ([Micafungin] log μM 0.90309) was 5787047 arbitrary units and the “Globalfluo assay 3” value ([Micafungin] log μM 0.90309) was 5397439 arbitrary units. The Mean globalfluo ([Micafungin] log μM 0.90309) was 5494724 arbitrary units, the “Survival rate (%)” value ([Micafungin] log μM 0.90309) was 3% and the “Globalfluo assay 1” value ([Micafungin] log μM 1) was 5522064 arbitrary units. The “Globalfluo assay 2” value ([Micafungin] log μM 1) was 5305822 arbitrary units, the “Globalfluo assay 3” value ([Micafungin] log μM 1) was 6090892 arbitrary units and the Mean globalfluo ([Micafungin] log μM 1) was 5639593 arbitrary units. For the same molecule, the “Survival rate (%)” value ([Micafungin] log μM 1) was 3%, the “Globalfluo assay 1” value ([Micafungin] log μM 1.079181) was 5365305 arbitrary units and the “Globalfluo assay 2” value ([Micafungin] log μM 1.079181) was 5914359 arbitrary units. For the same molecule, the “Globalfluo assay 3” value ([Micafungin] log μM 1.079181) was 4948085 arbitrary units, the Mean globalfluo ([Micafungin] log μM 1.079181) was 5409250 arbitrary units and the “Survival rate (%)” value ([Micafungin] log μM 1.079181) was 2%. For the same molecule, the “Globalfluo assay 1” value ([Micafungin] log μM 1.176091) was 5886475 arbitrary units, the “Globalfluo assay 2” value ([Micafungin] log μM 1.176091) was 5800515 arbitrary units and the “Globalfluo assay 3” value ([Micafungin] log μM 1.176091) was 6203727 arbitrary units. The Mean globalfluo ([Micafungin] log μM 1.176091) was 5963572 arbitrary units, the “Survival rate (%)” value ([Micafungin] log μM 1.176091) was 5% and the “Globalfluo assay 1” value ([Micafungin] log μM 1.30103) was 6537106 arbitrary units. For the same molecule, the “Globalfluo assay 2” value ([Micafungin] log μM 1.30103) was 5661218 arbitrary units, the “Globalfluo assay 3” value ([Micafungin] log μM 1.30103) was 6414894 arbitrary units and the Mean globalfluo ([Micafungin] log μM 1.30103) was 6204406 arbitrary units. The “Survival rate (%)” value ([Micafungin] log μM 1.30103) was 7%, the “Globalfluo assay 1” value ([Micafungin] log μM 1.477121) was 5692141 arbitrary units and the “Globalfluo assay 2” value ([Micafungin] log μM 1.477121) was 6434487 arbitrary units. For the same molecule, the “Globalfluo assay 3” value ([Micafungin] log μM 1.477121) was 7272557 arbitrary units, the Mean globalfluo ([Micafungin] log μM 1.477121) was 6466395 arbitrary units and the “Survival rate (%)” value ([Micafungin] log μM 1.477121) was 8%. The “Globalfluo assay 1” value ([Micafungin] log μM −0.5228788) was 4445501 arbitrary units, the “Globalfluo assay 2” value ([Micafungin] log μM −0.5228788) was 5528681 arbitrary units and the “Globalfluo assay 3” value ([Micafungin] log μM −0.5228788) was 4443191 arbitrary units. The Mean globalfluo ([Micafungin] log μM −0.5228788) was 4805791 arbitrary units, the “Survival rate (%)” value ([Micafungin] log μM −0.5228788) was −1% and the “Globalfluo assay 1” value ([Micafungin] log μM −1) was 4527783 arbitrary units. For the same molecule, the “Globalfluo assay 2” value ([Micafungin] log μM −1) was 4062591 arbitrary units, the “Globalfluo assay 3” value ([Micafungin] log μM −1) was 5413646 arbitrary units and the Mean globalfluo ([Micafungin] log μM −1) was 4668007 arbitrary units. For the same molecule, the “Survival rate (%)” value ([Micafungin] log μM −1) was −2%, the “Globalfluo assay 1” value ([Micafungin] log μM −2) was 4648220 arbitrary units and the “Globalfluo assay 2” value ([Micafungin] log μM −2) was 3959524 arbitrary units. For the same molecule, the “Globalfluo assay 3” value ([Micafungin] log μM −2) was 4368024 arbitrary units, the Mean globalfluo ([Micafungin] log μM −2) was 4325256 arbitrary units and the “Survival rate (%)” value ([Micafungin] log μM −2) was −4%.
